Results on 1 molecule are retold here after patent EP3967331A1, “ULTRA-SMALL FLUORESCENT ORGANIC NANOPARTICLES” (Centre national de la recherche scientifique, priority 2020, dated 2022).

The series in a line: Nile Red probing of the hydrophobic core. The class given is physicochemical. The following applies: Nile Red 200 nM, excitation 540 nm, water. How it is done:
In contrast to the out-stretched configuration of a polymer brush, the folded monomolecular nanoparticle is expected to bear a hydrophobic core (Figure 1), similar to that of micelles made of surfactants. To evidence the presence of this core, we used a solvatochromic dye Nile Red, which is a common tool for identifying low polar environment of micelles^81 and single-chain polymeric NPs. Fluorescence spectra of Nile Red at fixed concentration (200 nM) were recorded with addition of different concentrations of fully PEGylated PMAO polymer with 5 mol% BDP1 (Figure12. A drastic increase in the fluorescence intensity of Nile Red was observed accompanied by ∼30 nm blue shift of the emission band (Figure12A,B,D. The increase in the intensity stabilized above 200 nM polymer concentration (Figure12C, which corresponded well to 1/1 dye/polymer molar ratio. Below this concentration, multiple Nile Red molecules per particle can be present, which leads to dye self-quenching, explaining lower intensity at lower polymer concentrations. On the other hand, the blue shifted emission of Nile Red at ∼630 nm indicates the presence of a hydrophobic binding site in these NPs. The NPs were compared with micelles of Tween 80, having a hydrophobic core formed by hydrocarbon chains. […]

Take `CCCCCCCC/C=C\CCCCCCCC(=O)OCCOCC(OCCO)C1OCC(OCCO)C1OCCO` (stereo not shown) [Tween 80]: the “Emission of Nile Red” value was about 640 nm.
